Assay results from patent US20250228851A1, “ALLOSTERIC INHIBITOR COMPOUNDS FOR OVERCOMING CANCER RESISTANCE” (priority 2021, published 2025).

Key:
[1] = tested on: Ba/F3 cells expressing T315I-p185-BCR-ABL; assay: XTT cell viability / proliferation, Ba/F3 expressing T315I-p185-BCR-ABL; format: cell-based, murine
Method: • 1. Ba/F3 cells were obtained from the German Collection of Microorganisms and Cell Cultures (DSMZ, Braunschweig, Germany) and maintained in RPMI 1640 medium supplemented with 10% fetal calf serum (Invitrogen) containing 10 ng/ml of interleukin-3 (Cell Concepts, Umkirch, Germany). Ecotropic Phoenix cells and Rat-1 cells were cultured in Dulbecco's modified Eagle's medium supplemented with 10% fetal calf serum. GNF-2 (Sigma-Adrich, Steinheim, Germany) was dissolved in dimethyl sulfoxide and added at a final concentration of […]. Cell growth was assessed by dye exclusion using Trypan blue. Proliferation was assessed using the XTT proliferation kit (Roche, Mannheim, Germany), according to the manufacturer's instructions. • 2. Ba/F3: IL-3 dependent lymphatic murine pro B cell line. Ba/F3 cells expressing either p185-BCR-ABL1 (p185-BCR-ABL-Ba/F3) or p210-BCR-ABL (p210-BCR-ABL-Ba/F3). p185-BCR-ABL1 (activated kinases substitute for the IL-3 signaling and therefore render the cells IL3 independent. Ba/F3 cells expressing either p185-BCR-ABL (p185-Ba/F3) or p210-BCR-ABL (p210-Ba/F3). Ba/F3 cells obtained from the German Collection of Microorganisms and Cell Cultures (DSMZ, Braunschweig, Germany). • 3. Mutant transduced Ba/F3 cells (T315I-p185-BCR-ABL1 or T315I-p210-BCR-ABL1): Ba/F3 cells expressing either the mutated forms T315I-p185-BCR-ABL1 or T315I-p210-BCR-ABL1. • 4. WT-Sup-B15: A Ph+ ALL cell line harboring the p185-BCR-ABL. Sup-B15: established from the bone marrow of a child with acute lymphoblastic leukemia (B cell precursor ALL) in second relapse in 1984; described in the literature to carry the ALL-variant (m-BCR) of the BCR-ABL1 fusion gene (e1-a2) correct, because it results in the p185-BCR-ABL version. • 5. […] V617FJAK2 HEL: (Human erythroleukemia) is a growth factor independent erythroleukemic cell line established from the bone marrow of a patient with relapsed Hodgkin disease after autologous bone marrow transplantation (Martin P & Papayannopoulou T: Science 1982; 216:1233-1235). HEL cells display a block in differentiation at the level of common erythroid-megakaryocytic progenitor and have been commonly used as a model to study erythroid and megakaryocytic differentiation. • 7. Jurkat: an immortalized human T lymphocyte first derived from the peripheral blood of a child suffering from T cell leukemia. Jurkat cells are used to study acute T cell leukemia, T cell signaling, and the expression of various chemokine receptors susceptible to viral entry, particularly HIV.
FIGS. 1A and 1B: Effects of Compound 16 on Ba/F3 cells expressing either p185-BCR-ABL or T315I-p185-BCR-ABL. Cells were exposed to increasing concentration of Compound 16 [empty vehicle (0.0 μM+IL3), 2.5, 5.0 and 10.0 μM]. […] Cell viability (CV) was assessed using the XTT method as described in the experimental part. The means±SD of triplicates from one representative experiment out of three performed are given.
FIGS. 7A-C: Effects of Compound 16 on of Ba/F3 cells expressing WT-p185-BCR-ABL (FIG. 7A) and the mutant gatekeeper T315I-p185-BCR-ABL (FIG. 7B) by Compound 16. Cells were exposed to increasing concentrations of Compound 16.

[2] = tested on: p185-Ba/F3 (WT-Ba/F3-p185-BCR-ABL); assay: Proliferation by trypan blue exclusion, p185-Ba/F3; format: cell-based, murine; conditions: p185-Ba/F3, 1.0, 2.0 and 5.0 μM
Method: • 1. Ba/F3 cells were obtained from the German Collection of Microorganisms and Cell Cultures (DSMZ, Braunschweig, Germany) and maintained in RPMI 1640 medium supplemented with 10% fetal calf serum (Invitrogen) containing 10 ng/ml of interleukin-3 (Cell Concepts, Umkirch, Germany). Ecotropic Phoenix cells and Rat-1 cells were cultured in Dulbecco's modified Eagle's medium supplemented with 10% fetal calf serum. GNF-2 (Sigma-Adrich, Steinheim, Germany) was dissolved in dimethyl sulfoxide and added at a final concentration of […]. Cell growth was assessed by dye exclusion using Trypan blue. Proliferation was assessed using the XTT proliferation kit (Roche, Mannheim, Germany), according to the manufacturer's instructions. • 2. Ba/F3: IL-3 dependent lymphatic murine pro B cell line. […]
FIGS. 4A and 4B. […] All cell lines were treated with the indicated concentrations of Compound 16 for total period of five days and proliferation was determined by trypan blue exclusion of viable cells. […] For factor-independent growth, the number of viable cells was determined at day 3 by trypan blue dye exclusion.

[3] = tested on: BV173; assay: Proliferation by dye exclusion after three days, BV173; format: cell-based, human
Method: (§1) FIG. 3. […] Cells were exposed to increasing concentration of 2.5, 5 and 10 μM of Compound 16. The negative control cell lines Ph− ALL HP was irresponsive to increasing concentration of Compound 16 (up to 10 μM). […] All four cell lines were plated in duplicates at the indicated concentrations, and proliferation was assessed after three days by dye exclusion of viable cells. […] The sensitivity of Ph+ cells to Compound 16 underlines the involvement of BCR-ABL in the antiproliferative mechanism. Death induction of BV173 cells is well taken as an indication of the ability of such group of compounds to overcome resistance that is originated in non-mutational grounds. However, the ability overcome the resistant T315I-BCR-ABL mutant, as shown in the dose-dependent manner of KÖ (circles), might be indicative for a non-ATP competitive mechanism of action.

[4] = tested on: HP (Ph− ALL cultures); assay: Proliferation by dye exclusion after three days, HP; format: cell-based, human; conditions: HP, 2.5, 5 and 10 μM
Method: as §1

COc1ccc(C(=O)N2CCN(c3cc(Nc4ccc(OC(F)(F)F)cc4)ncn3)CC2)cc1OC [Compound 16]
RF (T315I-p185 versus p185-Ba/F3) ([1]; 1 μM, 48 hr): 1.07 | cells inhibited ([1]; 1 μM, within the first 24 hours): not affected | resistance conferred by T315I mutant versus p185-Ba/F3 ([1]; 2 μM, T=48 hr): 1.84 fold | viable cells ([1]; 2 μM, T=48 hr): 50.71% | time to complete inhibition ([1]; 10 μM): ~96 h | cell proliferation affected ([1]; 5 and 10 μM): ~80% | effect on proliferation (in words) [2]: inhibits the proliferation | IC50 [3]: 2500 nM | response (in words) [4]: irresponsive
